BindingDB's records for doi:10.1021/acs.biochem.6b00446 (Avanti Polar Lipids, 2016)
“And” between values parts separate entries of the source, which are not always exact repeats. Equal entries are not always repeated.

Target: T1, Fatty acid-binding protein, liver (Mus musculus, UniProt P12710)
T1 sequence (P12710 whole entry): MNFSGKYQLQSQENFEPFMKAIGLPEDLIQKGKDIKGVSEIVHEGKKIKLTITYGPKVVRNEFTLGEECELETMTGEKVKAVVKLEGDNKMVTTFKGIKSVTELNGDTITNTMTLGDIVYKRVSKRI
Experiment: FABP1 Fluorescent Ligand Displacement Assay
From the text: Data were corrected for the following blanks/controls: protein only, fluorescent ligand only, fluorescent ligand with anincreasing amount of nonfluorescent ligand, and photobleaching.

| SMILES | Ki |
| --- | --- |
| CCCCCCCCCCCCCCCC(=O)OC(CO)CO [2-Palmitoylmonoglycerol (2-PG)] | 70 nM |
| Cc1ccc2c(c1)-c1c(ssc1=S)C(C)(C)N2C(=O)CC(C)C [SCPI4] | 33 nM |
| C=C(C)[C@@H]1CCC(C)=C[C@H]1c1c(O)cc(CCCCC)cc1O [2-(6-Isopropenyl-3-methyl-cyclohex-2-enyl)-5-pentyl-benzene-1,3-diol (Cannabidiol)] | 167 nM |
| COc1cc([N+](=O)[O-])cc2c1NC(c1ccc(Br)cc1)=NO2 [SCPI3] | 900 nM |
| CCCCCCC(C)(C)c1ccc([C@@H]2C[C@H](O)CC[C@H]2CCCO)c(O)c1 [ChEMBL_75020] | 990 nM |
| Cc1c(C(=O)NN2CCCCC2)nn(-c2ccc(Cl)cc2Cl)c1-c1ccc(Cl)cc1 [SR141716] | 2000 nM |
| CCCCCc1cc(O)c2c(c1)OC(C)(C)[C@@H]1CCC(C)=C[C@@H]21 [(10R,10aR)-6,6,9-Trimethyl-3-pentyl-6a,7,8,10a-tetrahydro-6H-benzo[c]chromen-1-ol] | 1000 nM |
| CCCCC/C=C\C/C=C\C/C=C\C/C=C\CCCC(=O)Nc1ccc(O)cc1 | 29 nM |
| CCCCC/C=C\C/C=C\C/C=C\C/C=C\CCCC(=O)OC(CO)CO | 61 nM |
| CC(=O)Nc1ccc(Nc2nc(-c3ccc(Cl)c(Cl)c3)cs2)cc1 [SCPI1] | 350 nM |
| CCCCCC=CCC=CCC=CCC=CCCCC(=O)Nc1ccc(O)cc1C [VDM11] | 37 nM |
| CCCCCCCC/C=C\CCCCCCCC(=O)N[C@@H](CO)Cc1ccc(O)cc1 [OMDM2] | 40 nM |
| CCC=CCC=CCC=CCC=CCC=CCC=CCCC(=O)NCCO [Docosahexaenoylethanolamide (DHEA)] | 163 nM |
| CCCCCCC(C)(C)c1cc(O)c2c(c1)OC(C)(C)[C@@H]1CC=C(CO)C[C@@H]21 [(6aR,10aR)-3-(1,1-dimethyl-heptyl)-9-hydroxymethyl-6,6-dimethyl-6a,7,10,10a-tetrahydro-6H-benzo[c]chromen-1-ol] | 850 nM |
| CCCCCCCC/C=C\CCCCCCCC(=O)NCCO [Oleamide MEA] | 43 nM |
| CCCCCn1cc(C(=O)c2cccc3ccccc23)c2ccccc21 [JWH-018] | 58 nM |
| CCc1c(-c2ccccc2)c(-c2ccccc2)nn1-c1ccccc1-c1cccc(OCC(=O)O)c1 [((2'-(5-ETHYL-3,4-DIPHENYL-1H-PYRAZOL-1-YL)-3-BIPHENYLYL)OXY)ACETIC ACID] | 21 nM and 52 nM |
| CCCCCCCC/C=C\CCCCCCCC(=O)N[C@H](CO)Cc1ccc(O)cc1 [OMDM1] | 40 nM |
| CCCCCCCC/C=C\CCCCCCCC(=O)OC(CO)CO [2-Oleoylmonoglycerol (2-OG)] | 40 nM |
